According to patent US6900198B2, “Synthetic catalytic free radical scavengers useful as antioxidants for prevention and therapy of disease” (Eukarion, Inc., priority 1995, dated 2005):

How the values were obtained:
[1] = test system: Human dermal fibroblasts (HF cells); test: Protection against glucose and glucose oxidase toxicity in human fibroblasts (XTT); assay type: cell-based; conditions: glucose oxidase 0.019 units/ml
Description: Cytotoxicity studies were performed as described under Experimental procedures. Absorbance values, corrected by subtracting the blank signal of 0.17 OD units, are the means±sd of triplicate samples. Control cells (open circle) received no glucose oxidase. Catalase-treated (solid circle) cells received glucose oxidase (0.019) units/ml) as well as bovine liver catalase (290 units/ml). Other samples received the same dose of glucose oxidase and the indicated concentrations of salen manganese complex.
(§1) Human dermal fibroblasts (HF cells) were obtained from the American type tissue Culture Collection at passage 1 and cultured and propagated in a medium (HF medium) consisting of Dulbecco's Modified Eagle's Medium with 4.5 g/l D-glucose, 10% calf serum 4 mM glutamine, 50 units/ml penicillin, and 50 μg/ml streptomycin in a 37° C. humidified incubator equilibrated with 5% CO2. Cells were used at passages 5 or 6 for experiments. […] After 2 hr., the absorbance at 490 nm was measured in a BioRad (Richmond, Calif.) Model 3550 plate-reader, using a reference wavelength of 655 nm. […] Absorbance measurements for blank wells, containing HF medium and XTT reagent but no cells, were also determined. […] Fresh HF medium was then added and cell viability assessed using the XTT reagent as described above. […]

[2] = test system: Human dermal fibroblasts (HF cells); test: Protection against t-butyl hydroperoxide toxicity in human fibroblasts (XTT); assay type: cell-based; conditions: 80 μM with 0.5 mM t-BHP
Description: as §1, with “experiments. For cell protection assays, HF cells were seeded at a density of about 15,000 cells per cm2 onto 96-well culture plates and allowed to grow to confluence.” for “experiments.”
Cell protection assays were performed as described under Experimental Procedures with salen-manganese complexes administered at the indicated concentrations and t-BHP at 0.5 mM. Cell viability was assessed using the XTT reagent as described and is expressed as the absorbance at 490 nm uncorrected for blank. […]

[3] = Catalase activity, polarographic oxygen electrode; assay type: biochemical; conditions: 10 μM salen manganese complex, 10 mM H2O2
Description: Catalase activity was assayed by monitoring the conversion of H2O2 to oxygen using a Clark-type polarographic oxygen electrode. The apparatus consisted of a Mini Clark Style electrode, a 600 μl Oxygen Uptake Chamber, and a Chemical Microsensor system, all obtained from Diamond General Corporation (Ann Arbor, Mich.). The electrode was calibrated by immersion in nitrogen- or air-equilibrated buffers using a Dual Chamber Calibration Cell (Diamond General, Corp.). Catalase reaction mixtures consisted of 50 mM sodium phosphate, pH 8.1,0.9% sodium chloride, and salen manganese complex and H2O2 at the indicated concentrations. The temperature of the water-jacketed reaction chamber, as well as the calibration buffers, was maintained at 25±0.1° C. Data were collected at 1 sec intervals and stored on a MacIntosh II computer using data acquisition hardware and software by Strawberry Tree, Inc. (Sunnyvale, Calif.). Dissolved oxygen concentrations were calculated as described previously (Del Rio et al. (1977) Anal. Biochem. 80: 409) based on a value of 2.5×10^−4 M oxygen for air-saturated buffer at 25° C. Linearity of the dissolved oxygen measurements within the experimental range was continued by determining the amount of oxygen generated from known quantities of H2O2 during exhaustive treatment with bovine liver catalase. Stock solutions of H2O2 were prepared by diluting a commercial 30% H2O2 solution in water and the H2O2 concentrations in these stocks were determined by absorbance at 240 nm, using a molar extinction coefficient of 44 (Stadtman, E R. et al. (1990) Proc. Natl. Acad. Sci. USA 87: 384). […] In the absence of salen manganese complex, H2O2 alone typically produced an early, relatively slow increase in signal. The slope of this increased signal was not proportional to H2O2 concentration (for example in one experiment, 1 and 10 Mm H2O2 yielded apparent rates of 12 and 14 μM oxygen per min, respectively) and may be due to an electrode artifact. […] Where presented, initial rates were calculated by determining the slope of the linear portion of time dependent plots of oxygen generation, usually comprising the first five seconds of the reaction. Unless otherwise indicated, these were corrected by subtracting the rate obtained with H2O2 alone. Where presented, endpoint oxygen generated was calculated from time-dependent plots, such as those shown in FIG. 14, as the difference between the baseline oxygen concentration immediately prior to-substrate addition and the maximal oxygen concentration achieved during the course of the reaction. All reactions subjected to these calculations were run for a sufficient time to ensure that oxygen generation had ceased.
Compounds were assayed for SOD as described under Experimental procedures, using cytochrome C as acceptor. […]

[4] = Peroxidase activity, H2O2-dependent oxidation of ABTS; assay type: biochemical; conditions: for peroxidase activity (relative, in words): 10 μM salen manganese complex, 0.2 mM H2O2
Description: (§2) Peroxidase activity was assayed by monitoring the hydrogen peroxide-dependent oxidation of 2,2′-azino-bis(3-ethylbenzthiazoline-6) sulfonic acid (ABTS) spectrophotometrically. Standard assay mixtures consisted of 50 mM sodium phosphate, pH 8.1, 0.9% sodium chloride, 0.5 mM ABTS, and H2O2 and salen manganese complex as indicated. Where indicated, 50 mM sodium phosphate buffers of pH 6.0 or pH 7.1 were substituted. Assays were conducted at 27±0.2° C. ABTS oxidation was monitored at 740 or 500 nm to eliminate interference by the salen manganese complexes, many of which absorb in the vicinity of the λmax of oxidized ABTS, and to avoid absorbance values that exceeded the linear range of the spectrophotometer. The amount of oxidized ABTS was estimated using an Δε740 of 20,300 M^−1cm^−1 or an Δε500 of 3400 M^−1cm^−1 calculated based upon the published molar extinction coefficient oat 405 nm (36,800).
Compounds were assayed for SOD as described under Experimental procedures, using cytochrome C as acceptor. The concentration of each compound showing half-maximal activity in this assay is presented. Catalase and peroxidase activities were conducted as described under Experimental Procedures, with 10 μM salen manganese complex. The H2O2 concentration was 10 mM and 0.2 mM in the catalase and peroxidase assays, respectively. Where denoted, “nd” means that the assay was not performed on this compound.
Catalase and peroxidase activities were assayed as described in Example 2. Catalase assays contained 10 μM salen-manganese complex and 10 mM hydrogen peroxide. Peroxidase assays contained 10 μM salen-manganese complex and 0.2 mM hydrogen peroxide. Glucose-glucose oxidase toxicity assays were performed using human dermal fibroblasts as described in Example 2.

[5] = test system: Hippocampal slices; test: Anoxia in hippocampal slices, EPSP recovery; assay type: cell-based, Sprague-Dawley rats; conditions: C7 50 μM
Source text: Anoxia in hippocampal slices. […] A glass recording micropipet was positioned in CA1 stratum radiatum to record excitatory postsynaptic potential (EPSPs) generated by electrical stimulation of the Schaffer-commissural pathway by a bipolar stimulation electrode at a frequency of 0.033 Hz. During anoxic episodes, the oxygen supply was replaced with 100% N2 gas. N2 was supplied for 90 seconds following electrical silence after which O2 was reintroduced. Recovery of EPSPs (both slope and amplitude) was recorded for 50 minutes, at which time the final viability of the slices was determined, with viability being defined as the ability of the slice to generate a 3 mV EPSP.

[6] = Peroxidase activity toward t-BHP, ABTS oxidation; assay type: biochemical; conditions: 1 mM t-BHP versus same concentration of H2O2
Description: as §2
(In comparison, horseradish peroxidase utilized t-BHP with an ABTS oxidation rate that was about 5.4% of the rate with H2O2).

| Molecule | protection against glucose and glucose oxidase (overall, in words) [1] | catalase activity, initial rate (relative, in words) [3] | peroxidase activity (relative, in words) [4] | other results |
| --- | --- | --- | --- | --- |
| CC(=O)[O][Mn]1[O]c2ccccc2C=NCCN=Cc2ccccc2[O]1 [Compound C31] | about equally as effective as C7 |  |  | reduced viability at 80 μM relative to 40 μM together with t-BHP [2]: possible synergistic toxicity with t-BHP |
| COc1cccc2c1[O][Mn]([O]C(C)=O)[O]c1c(cccc1OC)C=NCCN=C2 [Compound C32] | more protective than C43 | about twice as fast as C7 | fastest peroxidases | catalase endpoint: total oxygen generated / turnovers completed before the reaction ceased (relative, in words) [3]: almost twice the amount of oxygen as C7; catalase turnovers before the reaction ceased [3]: about 16 turnovers |
| COc1cccc2c1[O][Mn]([O]C(C)=O)[O]c1c(cccc1OC)C=NCCCN=C2 [Compound C51] |  | reduced catalase and peroxidase activities | reduced catalase and peroxidase activities |  |
| Purified bovine SOD: purified bovine superoxide dismutase |  |  |  | protection against anoxia-induced decrease in synaptic response in CA1 (EPSP slope and amplitude) [5]: no protection |
| horseradish peroxidase |  |  |  | ABTS oxidation rate with t-BHP as percent of the rate with H2O2 [6]: about 5.4% |
| bovine liver catalase: bovine liver catalase enzyme used as reference (protein, UniProt P00432 2-527, looked up) Catalase: ADNRDPASDQMKHWKEQRAAQKPDVLTTGGGNPVGDKLNSLTVGPRGPLLVQDVVFTDEMAHFDRERIPERVVHAKGAGAFGYFEVTHDITRYSKAKVFEHIGKRTPIAVRFSTVAGESGSADTVRDPRGFAVKFYTEDGNWDLVGNNTPIFFIRDALLFPSFIHSQKRNPQTHLKDPDMVWDFWSLRPESLHQVSFLFSDRGIPDGHRHMNGYGSHTFKLVNANGEAVYCKFHYKTDQGIKNLSVEDAARLAHEDPDYGLRDLFNAIATGNYPSWTLYIQVMTFSEAEIFPFNPFDLTKVWPHGDYPLIPVGKLVLNRNPVNYFAEVEQLAFDPSNMPPGIEPSPDKMLQGRLFAYPDTHRHRLGPNYLQIPVNCPYRARVANYQRDGPMCMMDNQGGAPNYYPNSFSAPEHQPSALEHRTHFSGDVQRFNSANDDNVTQVRTFYLKVLNEEQRKRLCENIAGHLKDAQLFIQKKAVKNFSDVHPEYGSRIQALLDKYNEEKPKNAVHTYVQHGSHLSAREKANL |  |  |  | reduction of the initial rate of ABTS oxidation by C7 ([4]; 29 units/ml bovine liver catalase added, 10 mM H2O2): 55% |
